Source: patent publication US8211931B2, “Active compound combinations having insecticidal and acaricidal properties” (Bayer Cropscience AG, priority 2006, dated 2012)

How the values were obtained:
Type in all cases: in vivo
Psylla pyri = test: Field test on pear trees against pear psyllids, kill of L-1 and L-4 nymphs; details: for Activity (% Abbott) Psylla piri L-1: L-1 nymphs; for Activity (% Abbott) Psylla piri L-4: L-4 nymphs
Method: In 4 replications, pear trees of the cultivar “Conference” of a height of about 3 m are treated against pear psyllids, Psylla pyri. Here, the active compound (I-4′) (100 OD) and the commercial standard Amitraz (UL 400) are applied at the stated application rates. The application is carried out using a knapsack sprayer and an application rate of 1000 l of water/ha. The beneficial species Anthocoris nemoralis appears 14 days after the treatment.
Evaluation is carried out 4, 8 and 14 days after the treatment by evaluating the kill of the L-1 nymphs and the L-4 nymphs on the branches.

Eriosoma lanigerum = test: Field test on apple trees against woolly apple aphids, kill according to Abbott
Method: In three replications, in each case three about 25-year old apple trees (crown height about 2 m) of the cultivar “Elan” are treated against woolly apple aphids, Eriosoma lanigerum. Here, the active compound (I-4′) (150 OD) and the commercial standard clothianidin (WG 50) are tested comparatively at the stated application rates in the presence of the woolly aphid parasite (beneficial species) Aphelinus mali. The application is carried out using an atomizer at a water application rate of 500 l/ha. Both one and two applications at an interval of 34 days are carried out.
Evaluation is carried out 7, 30, 44, 52, 59, 66 and 73 days after the first treatment by evaluating the kill of the adult pests and the number of parasitic pests in each case 10 colonies according to Abbott.

Bemisia tabaci = Bemisia tabaci test (cotton leaves sprayed, mirid bugs added); details: 0.16 ppm, active compound alone
Method: (§1) To produce a suitable preparation of active compound, 1 part by weight of active compound is mixed with the stated amounts of solvent and emulsifier, and the concentrate is diluted with emulsifier-containing water to the desired concentration.
Cotton leaves (Gossypium hirsutum) infested by the whitefly (Bemisia tabacii) are treated by being sprayed with the preparation of active compound at the desired concentration.
After the desired period of time, a defined amount of mirid bugs (Macrolophus caliginosus) is added.
After the desired period of time, the kill of the pest in % is determined. 100% means that all whiteflies have been killed; 0% means that none of the whiteflies have been killed. The determined kill rates are entered into Colby's formula.

Myzus persicae = Myzus persicae test (cabbage leaves sprayed, ladybird larvae added); details: 4 ppm, active compound alone
Method: as §1
Cabbage leaves (Brassica oleracea) infested by the green peach aphid (Myzus persicae) are treated by being sprayed with the preparation of active compound at the desired concentration.
After the desired period of time, a defined amount of ladybird larvae (Coccinella septempunctata) is added.
After the desired period of time, the kill of the pest in % is determined. 100% means that all aphids have been killed; 0% means that none of the aphids have been killed.
The determined kill rates are entered into Colby's formula.

[1] = 8 d, 400 g/ha/m crown height, UL 400
[2] = 14 d, 400 g/ha/m crown height, UL 400
[3] = 8 d, 75 g/ha/m crown height, 100 OD
[4] = 14 d, 75 g/ha/m crown height, 100 OD

Q: Cc1ccc(/N=C/N(C)/C=N/c2ccc(C)cc2C)c(C)c1 [Amitraz, reference compound] was tested. Which “Activity (% Abbott) Psylla piri L-1” value (Psylla pyri; 4 d, 400 g/ha/m crown height, UL 400, pear trees) did it give?
A: 23.6 % Abbott

Q: And the “Activity (% Abbott) Psylla piri L-1” value (Psylla pyri; [1])?
A: 41.0 % Abbott

Q: What about the “Activity (% Abbott) Psylla piri L-1” value (Psylla pyri; [2]) of the same molecule?
A: 41.8 % Abbott

Q: And the “Activity (% Abbott) Psylla piri L-4” value (Psylla pyri; 4 d, 400 g/ha/m crown height, UL 400)?
A: 0.0 % Abbott

Q: What about the “Activity (% Abbott) Psylla piri L-4” value (Psylla pyri; [1]) of the same molecule?
A: 44.6 % Abbott

Q: What about the “Activity (% Abbott) Psylla piri L-4” value (Psylla pyri; [2]) of the same molecule?
A: 44.4 % Abbott

Q: With CN/C(=N\[N+](=O)[O-])NCc1cnc(Cl)s1 [Clothianidin, clothianidin, reference compound] as the molecule, how does the “Activity (% Abbott) Eriosoma lanigerum” value (Eriosoma lanigerum; 7 d, 37.5 g/ha/m crown height, WG 50, two treatments, apple trees, Aphelinus mali present) read?
A: 71 % Abbott

Q: And the “Activity (% Abbott) Eriosoma lanigerum” value (Eriosoma lanigerum; 30 d, 37.5 g/ha/m crown height, WG 50, two treatments)?
A: 76 % Abbott

Q: What about the “Activity (% Abbott) Eriosoma lanigerum” value (Eriosoma lanigerum; 44 d, 37.5 g/ha/m crown height, WG 50, two treatments) of the same molecule?
A: 85 % Abbott

Q: And the “Activity (% Abbott) Eriosoma lanigerum” value (Eriosoma lanigerum; 52 d, 37.5 g/ha/m crown height, WG 50, two treatments)?
A: 81.8 % Abbott

Q: What about the “Activity (% Abbott) Eriosoma lanigerum” value (Eriosoma lanigerum; 59 d, 37.5 g/ha/m crown height, WG 50, two treatments) of the same molecule?
A: 81.8 % Abbott

Q: And the “Activity (% Abbott) Eriosoma lanigerum” value (Eriosoma lanigerum; 66 d, 37.5 g/ha/m crown height, WG 50, two treatments)?
A: 80 % Abbott

Q: And the “Activity (% Abbott) Eriosoma lanigerum” value (Eriosoma lanigerum; 73 d, 37.5 g/ha/m crown height, WG 50, two treatments)?
A: 80 % Abbott

Q: For CCOC(=O)OC1=C(c2cc(C)ccc2C)C(=O)N[C@]12CC[C@@H](OC)CC2 [Ex. I-4′], which “Kill in % after 14 d” value (Bemisia tabaci) is on record?
A: 0%

Q: What about the “Kill in % after 7 d” value (Myzus persicae) of the same molecule?
A: 10%

Q: What about the “Activity (% Abbott) Eriosoma lanigerum” value (Eriosoma lanigerum; 7 d, 75 g/ha/m crown height, 150 OD, one treatment, apple trees, Aphelinus mali present) of the same molecule?
A: 48 % Abbott

Q: What about the “Activity (% Abbott) Eriosoma lanigerum” value (Eriosoma lanigerum; 30 d, 75 g/ha/m crown height, 150 OD, one treatment) of the same molecule?
A: 95 % Abbott

Q: What about the “Activity (% Abbott) Eriosoma lanigerum” value (Eriosoma lanigerum; 44 d, 75 g/ha/m crown height, 150 OD, one treatment) of the same molecule?
A: 99 % Abbott

Q: And the “Activity (% Abbott) Eriosoma lanigerum” value (Eriosoma lanigerum; 52 d, 75 g/ha/m crown height, 150 OD, one treatment)?
A: 99.4 % Abbott

Q: What about the “Activity (% Abbott) Eriosoma lanigerum” value (Eriosoma lanigerum; 59 d, 75 g/ha/m crown height, 150 OD, one treatment) of the same molecule?
A: 98.2 % Abbott

Q: And the “Activity (% Abbott) Eriosoma lanigerum” value (Eriosoma lanigerum; 66 d, 75 g/ha/m crown height, 150 OD, one treatment)?
A: 98 % Abbott

Q: And the “Activity (% Abbott) Eriosoma lanigerum” value (Eriosoma lanigerum; 73 d, 75 g/ha/m crown height, 150 OD, one treatment)?
A: 98 % Abbott

Q: And the “Activity against Eriosoma lanigerum” value (Eriosoma lanigerum; after two treatments)?
A: 100%

Q: What about the “Activity (% Abbott) Psylla piri L-1” value (Psylla pyri; 4 d, 75 g/ha/m crown height, 100 OD, pear trees) of the same molecule?
A: 62.7 % Abbott

Q: And the “Activity (% Abbott) Psylla piri L-1” value (Psylla pyri; [3])?
A: 69.5 % Abbott

Q: What about the “Activity (% Abbott) Psylla piri L-1” value (Psylla pyri; [4]) of the same molecule?
A: 76.6 % Abbott

Q: And the “Activity (% Abbott) Psylla piri L-4” value (Psylla pyri; 4 d, 75 g/ha/m crown height, 100 OD)?
A: 91.4 % Abbott

Q: And the “Activity (% Abbott) Psylla piri L-4” value (Psylla pyri; [3])?
A: 98.4 % Abbott

Q: What about the “Activity (% Abbott) Psylla piri L-4” value (Psylla pyri; [4]) of the same molecule?
A: 99.3 % Abbott
